From US9987279B2, “Pharmaceutical composition for prevention and/or treatment of urinary incontinence” (ASTELLAS PHARMA INC., priority 2014, dated 2018)

Tests used:
[1] = tested on: stress urinary incontinence; conditions: clinical study; cited from earlier work
[2] = tested on: external urethral sphincter of extracted rat urethra; assay: External urethral sphincter contractile response induced by transmural electrical stimulation using extracted rat urethra; conditions: extracted rat urethra strips, 10 or 30 μmol/L, 15 minutes after addition, transmural electrical stimulation 20 V, 20 Hz; FIG. 1
[3] = tested on: SD female rats; assay: Reaction increasing urethra internal pressure induced by electrical stimulation of rat pudendal nerve; format: in vivo; conditions: anesthetized SD female rats, 3 or 10 mg/kg intravenously, about three minutes after administration; FIG. 2
Experimental: Test to Evaluate Reinforcing Action of Compound A on Reaction Increasing Urethra Internal Pressure Induced by Electrical Stimulation of Rat Pudendal Nerve
SD female rats (Japan SLC, Inc.) having a body weight of 200-350 g were anesthetized with urethane (1.2 g/kg, sc; Sigma-Aldrich), and a catheter (PE-50; Becton Dickinson) was lodged in the jugular vein for administering the test substance. Laparotomies were performed, and the dome of the bladder was cut open to allow discharge of the urine in the bladder. A microchip pressure transducer catheter (3.5Fr; Millar Instruments) was inserted from the external urethral orifice toward the bladder to measure the urethra internal pressure. The rats were arranged prone, the back was cut open, and several left and right pudendal nerves were isolated and held in place with exciting electrodes. […] The average of the reactions increasing urethra internal pressure by electrical stimulation three times before administering the test substance was calculated as the level before administering the test substance, and the percentage of reaction increasing urethra internal pressure by electrical stimulation about three minutes after administering the test substance to the value before administering the test substance was calculated for each of the treatment groups.

[4] = tested on: rat diaphragm myofibrils; conditions: cited from earlier work
[5] = tested on: rat extensor digitorum longus muscle; conditions: rat extensor digitorum longus muscle including a fast-muscle component; cited from earlier work
[6] = tested on: rat diaphragm; conditions: in vitro, transmural electrical stimulation; cited from earlier work
[7] = tested on: rat extensor digitorum longus muscle; conditions: in vivo, electrical stimulation of the rat fibular nerve; cited from earlier work
[8] = preclinical study; cited from earlier work

In the case of `CCOc1ccccc1O[C@@H](c1ccccc1)[C@@H]1CNCCO1` [(S,S)-reboxetine], the “efficacy on stress urinary incontinence” value [1] is given as “effective for stress urinary incontinence” and the urethral resistance [1] is given as “increased urethral resistance”.
For `NC(=O)c1ccn(-c2cnc(NC[C@]3(c4ncccc4F)C[C@H](F)C3)nc2)c1` [Compound A, 1-[2-({[trans-3-fluoro-1-(3-fluoropyridin-2-yl)cyclobutyl]methyl}amino)pyrimidin-5-yl]-1H-pyrrole-3-carboxamide], the “contractile response of the external urethral sphincter after adding test substance relative to before adding” value [2] is given as “reinforced contractile response of the external urethral sphincter”, the “reaction increasing urethra internal pressure after administration relative to before administration” value [3] is given as “reinforced a reaction increasing urethra internal pressure” and the “shift of concentration-response curve of intracellular calcium ions concentration and muscle tension” value [4] is given as “shift the concentration-response curve of intracellular calcium ions concentration and muscle tension to the left”. For the same compound, the “shift of concentration-response curve of intracellular calcium ions concentration and muscle tension” value [5] was “shift the concentration-response curve of intracellular calcium ions concentration and muscle tension to the left”, the “contractile response of rat diaphragm” value [6] was “reinforcing the contractile response of a rat diaphragm” and the “extensor digitorum longus muscle contractile response” value [7] was “reinforcing extensor digitorum longus muscle contractile response”.
In the case of `CNCC[C@H](Oc1cccc2ccccc12)c1cccs1` [duloxetine], the adverse drug reactions [1] is given as “undesirable adverse drug reactions such as suicide attempts were reported” and the “efficacy on stress urinary incontinence” value [1] is given as “effective on stress urinary incontinence”.
In the case of `CNCCC(Oc1ccccc1OC)c1ccccc1` (stereo not drawn) [nisoxetine], the “incontinence induced by sneezing” value [8] is given as “improved incontinence induced by sneezing” and the urethra internal pressure [8] is given as “increased urethra internal pressure”.
